Each compound was assayed against Prostaglandin E2 receptor EP2 subtype (Homo sapiens) (UniProt P43116) (assay: compounds shifting PGE2 potency at EP2 – cell-based, human EP2, PGE2 EC50 shift, dose response (AID 1421)). Conditions: EP2-expressing cells, PGE2 EC50 shift by compound; measured here: PGE2 EC50 at 6.7 uM compound.
Chain of Prostaglandin E2 receptor EP2 subtype (Homo sapiens) (P43116 whole entry, looked up): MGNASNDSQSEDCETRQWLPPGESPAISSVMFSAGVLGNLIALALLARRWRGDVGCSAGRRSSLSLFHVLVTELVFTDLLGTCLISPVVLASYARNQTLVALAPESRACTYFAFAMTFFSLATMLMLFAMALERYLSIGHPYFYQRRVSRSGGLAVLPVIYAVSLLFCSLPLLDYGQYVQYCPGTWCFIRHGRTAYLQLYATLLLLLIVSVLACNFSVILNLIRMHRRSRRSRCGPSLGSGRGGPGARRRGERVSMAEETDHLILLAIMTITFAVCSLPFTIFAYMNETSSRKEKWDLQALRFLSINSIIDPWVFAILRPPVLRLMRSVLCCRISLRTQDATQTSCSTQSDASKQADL

| Compound | PGE2 EC50 with compound |
| --- | --- |
| COc1ccc(C(=O)c2cnc3ccccc3c2-c2ccccc2)cc1 | 0.59 nM |
| Cc1cccc(C)c1NC(=O)CSc1nnc(Cn2nnc(-c3ccccc3)n2)n1-c1ccccc1 | 0.65 nM |
| CSc1nc(Sc2ccccc2)c2ccccc2n1 | 1.6 nM |
| CC(C)(C)C1CCC(OC(=O)c2ccncc2)CC1 (centres undefined) | 1.16 nM |
| CC1(C)Cc2nc3nc(SCC(=O)Nc4ccccc4)nc(N)c3cc2CO1 | 1.4 nM |
| O=C(CSc1nnc(-c2ccc(Cl)cc2)n1Cc1ccco1)c1cccs1 | 2.65 nM |
| c1ccc(-c2noc(CN3CCN(C(c4ccccc4)c4ccccc4)CC3)n2)cc1 | 0.73 nM |
| Cc1cccc(C)c1NC(=O)CSc1nc(COc2ccccc2)nc2ccccc12 | 0.82 nM |
| COc1ccc2c(c1)c(=O)c(Br)c(C)n2Cc1ccccc1 | 0.83 nM |
| O=c1c2ccccc2nc(/C=C/c2ccccc2)n1CCc1ccccc1 | 0.92 nM |
| Cc1onc(-c2ccccc2Cl)c1-c1nc(-c2ccncc2)no1 | 0.83 nM |
| O=C(O)c1csc(N/N=C/c2ccc(Br)cc2)n1 | 0.89 nM |
| Cc1cc2cc3c(cc2nc1SCC(=O)OC(C)C)OCO3 | 0.8 nM |
| CCOC(=O)c1c(NC(=O)Cc2cccs2)sc(C)c1C | 0.87 nM |
| COc1ccc2c(c1)C(C)=CC(C)(C)N2S(=O)(=O)c1ccc(Br)cc1 | 0.98 nM |
| CC1CCN(C(C)C(=O)Nc2ccccc2-c2ccccc2)CC1 (centres undefined) | 1.27 nM |
| COC(=O)c1cc(-c2ccc3c(c2)OCO3)nc2ccccc12 | 0.7 nM |
| O=C(CO/N=C/c1ccccc1)N1c2ccccc2Oc2ccccc21 | 1.45 nM |
| COCCOC(=O)c1c(C)oc2ccc(OCc3ccccc3)cc12 | 1.04 nM |
| O=C(/C(=C/O)N=Nc1ccccc1Cl)c1ccccc1 | 2.68 nM |
| CCn1c2ccc(F)cc2c2nc3ccccc3nc21 | 0.86 nM |
| COc1ccc(-c2c3c([nH]c(=S)c2C#N)CCC3)cc1 | 2.78 nM |
| Cc1nnc(SCC(=O)N2c3ccccc3C(C)(c3ccccc3)CC2(C)C)s1 (centres undefined) | 0.85 nM |
| N#Cc1sc2nc(C3CC3)cc(-c3ccc(Cl)cc3)c2c1N | 0.81 nM |
| Cc1ccc(O)c(C2=Nc3ccccc3N=C(c3cccs3)C2)c1 | 1.17 nM |
| Cc1cc(O)ccc1C1(c2ccc(O)cc2C)OC(=O)c2ccccc21 | 0.55 nM |
| C=CCOc1ccccc1CNc1ccccc1C | 1.42 nM |
| CC[C@@H]1C(=O)OC[C@@H]1Cc1cncn1C | 1.8 nM |

Continued, values first:

| PGE2 EC50 with compound | Compound |
| --- | --- |
| 2.67 nM | CCOc1ccc(NC(=O)CSc2ncnc3c2sc2ccccc23)cc1 |
| 2.56 nM | O=C(Nc1ccccc1)/C(=C/c1ccccc1)c1ccccc1 |
| 0.86 nM | Cc1ccc2c3c(cccc13)-c1ccccc1C2=O |
| 1.34 nM | CC(C)NC(=S)N/N=C1\CCCCC1C1CCCCC1 (centres undefined) |
| 1.27 nM | CCOP(=O)(OCC)c1nc(/C=C/c2ccccc2)oc1NCc1ccccc1 |
| 0.75 nM | COc1cc2ccccc2cc1C(=O)NC(=S)Nc1cccc(C(=O)O)c1 |
| 0.99 nM | CCOC(=O)c1c(-c2cccs2)csc1NC(=O)CN1CCOCC1 |
| 1.02 nM | CCOC(=O)c1c(NC(=O)COC(=O)Cn2c(C)nc3ccccc32)sc2c1CCCC2 |
| 1.83 nM | C=CCn1c(CNC(=O)c2cccs2)nnc1SCC(=O)c1ccc(Br)cc1 |
| 2.71 nM | COC(=O)c1cc(Br)c(=O)n(-c2nccs2)c1 |
| 1.44 nM | CCn1nnnc1SCC(=O)Nc1cccc(C)n1 |
| 1.2 nM | CCCc1cc(-c2n[nH]c(=S)n2C(C)c2ccccc2)cs1 (centres undefined) |
| 1.14 nM | CCOc1ccccc1NC(=O)c1ccccc1-c1nc(-c2ccccc2)no1 |
| 0.84 nM | O=c1c2ccccc2c(-c2ccccc2)nn1Cc1c(Cl)cccc1Cl |
| 2.45 nM | CC(=O)N1c2ccccc2C(C)(c2ccccc2)CC1(C)C (centres undefined) |
| 0.89 nM | CCOc1ccccc1NC1c2ccccc2C(=O)N1c1ccc(C)cn1 (centres undefined) |

| PGE2 EC50 with compound | Compound |
| --- | --- |
| 0.85 nM | CCN1C(c2ccccc2)C(C)C(=O)C(C)C1c1ccccc1 (centres undefined) |
| 0.55 nM | COc1ccccc1NC(=O)CSc1nnc(Cn2nnc(-c3ccccc3)n2)n1-c1ccccc1 |
| 1.11 nM | CCOC(=O)c1sc(NC(=O)CCN2CC(C)OC(C)C2)c(C(=O)OCC)c1C (centres undefined) |
| 1.21 nM | CCCCCn1c(SCCC(C)C)nc2c1c(=O)[nH]c(=O)n2C |
| 1.57 nM | Cc1cc(=O)oc(C)c1C(=O)OC(C(=O)c1ccccc1)c1ccccc1 (centres undefined) |
| 0.94 nM | Brc1ccccc1Cn1c(-c2cscn2)nc2ccccc21 |
| 1.02 nM | Cc1c(OCc2ccccc2)c(=O)ccn1Cc1ccc(Cl)cc1 |
| 2.78 nM | Cc1cccc(-n2c(=S)[nH]c3c(oc4ccccc43)c2=O)c1 |
| 1.01 nM | CCCOP(=O)(OCCC)c1nc(-c2ccccc2)oc1NCc1ccccc1 |
| 1.19 nM | O=C(O)c1ccc(-c2nc(-c3cccc(C(F)(F)F)c3)cs2)cc1 |
| 1.12 nM | N#CC1=C(S)N(c2ccccc2)C2(CCCCC2)NC1=O |
| 0.71 nM | COc1ccc(C)cc1-n1c(=O)c2ccccc2c2ccccc2c1=O |
| 2.7 nM | O=S(=O)(C=C(c1ccccc1)c1ccccc1)c1ccccc1 |
| 1.56 nM | CCOc1nc(C)cc(C)c1S(=O)(=O)c1ccc(Cl)cc1 |
| 3.13 nM | CC(C)c1ccc(OCC(=O)NC(=S)Nc2ccc3c4c(cccc24)CC3)cc1 |
